The target of test [1] is T1, Protein cereblon/Tyrosine-protein kinase ABL1/Breakpoint cluster region protein (Homo sapiens, UniProt P00519+P11274+Q96SW2). Briefly: Protac activity at CRBN/BCR-ABL in human K562 cells assessed as increase in BCR-ABL degradation at 50 nM by Western blotting analysis. The test is classed as cell-based.
The next test relates to K562. Briefly: cells. To be noted: Homo sapiens, K562, 48 h.
In test [2] the target is Crk-like protein (Homo sapiens) (UniProt P46109). Briefly: Inhibition of CRKL phosphorylation at Tyr207 residue in human K562 cells at 0.3 to 100 nM incubated for 16 hrs by Western blotting analysis. It counts as cell-based. The following applies: dose 0.3-100 nM.
Test [3] addresses T2, Signal transducer and activator of transcription 5A (Homo sapiens) (UniProt P42229).
T2 sequence (whole entry): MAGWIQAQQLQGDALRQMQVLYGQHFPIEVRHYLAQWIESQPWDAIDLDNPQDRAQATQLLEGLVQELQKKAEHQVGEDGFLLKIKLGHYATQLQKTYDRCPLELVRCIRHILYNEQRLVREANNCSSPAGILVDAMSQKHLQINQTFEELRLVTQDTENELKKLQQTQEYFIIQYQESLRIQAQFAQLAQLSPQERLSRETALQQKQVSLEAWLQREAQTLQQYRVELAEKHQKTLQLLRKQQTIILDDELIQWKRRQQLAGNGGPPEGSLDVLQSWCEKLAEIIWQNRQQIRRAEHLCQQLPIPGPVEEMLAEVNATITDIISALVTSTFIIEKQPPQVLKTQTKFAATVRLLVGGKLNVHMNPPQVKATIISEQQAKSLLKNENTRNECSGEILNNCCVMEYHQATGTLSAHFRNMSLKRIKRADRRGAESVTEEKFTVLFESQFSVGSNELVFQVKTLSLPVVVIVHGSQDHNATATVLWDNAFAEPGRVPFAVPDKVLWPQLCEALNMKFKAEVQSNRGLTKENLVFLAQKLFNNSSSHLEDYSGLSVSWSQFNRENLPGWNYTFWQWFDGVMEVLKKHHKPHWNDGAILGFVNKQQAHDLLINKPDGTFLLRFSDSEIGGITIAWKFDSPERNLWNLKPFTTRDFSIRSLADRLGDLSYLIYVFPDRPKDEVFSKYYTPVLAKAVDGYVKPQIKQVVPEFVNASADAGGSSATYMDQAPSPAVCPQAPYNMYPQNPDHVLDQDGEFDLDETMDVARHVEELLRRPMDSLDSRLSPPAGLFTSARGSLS
Briefly: Inhibition of STAT5 phosphorylation at Tyr694 residue in human K562 cells at 0.3 to 100 nM incubated for 16 hrs by Western blotting analysis. The test is classed as cell-based. The following applies: dose 0.3-100 nM.

Test [4] concerns the target T2, Signal transducer and activator of transcription 5A (Homo sapiens). Briefly: Inhibition of STAT5 phosphorylation at Tyr694 residue in human K562 cells at 100 nM incubated for 6 hrs followed by compound washout measured upto 96 hrs by Western blotting analysis. The test is classed as cell-based.
The target of test [5] is Crk-like protein (Homo sapiens) (UniProt P46109). Nature of the test: Inhibition of CRKL phosphorylation at Tyr207 residue in human K562 cells at 100 nM incubated for 6 hrs followed by compound washout measured upto 96 hrs by Western blotting analysis. It counts as cell-based.
Test [6] concerns the target T3, Bcr/Abl fusion protein (Homo sapiens) (UniProt P00519+P11274). Nature of the test: Inhibition of BCR-ABL phosphorylation at Tyr245 residue in human K562 cells at 100 nM incubated for 6 hrs followed by compound washout measured upto 96 hrs by Western blotting analysis. The test is classed as cell-based.
Test [7] addresses T1, Protein cereblon/Tyrosine-protein kinase ABL1/Breakpoint cluster region protein. Nature of the test: Protac activity at CRBN/BCR-ABL in human K562 cells assessed as increase in BCR-ABL degradation at 100 nM incubated for 6 hrs followed by compound washout measured upto 96 hrs by Western blotting analysis. It counts as cell-based.
Test [8] deals with T3, Bcr/Abl fusion protein (Homo sapiens). Nature of the test: Inhibition of BCR-ABL phosphorylation at Tyr245 residue in human K562 cells at 0.3 to 100 nM incubated for 16 hrs by Western blotting analysis. The test is classed as cell-based. To be noted: dose 0.3-100 nM.

SMILES strings stand for the structures. Calls of active or inactive are those of the source. No cut-off for these calls is given here.

T1 sequence (P00519 whole entry, looked up): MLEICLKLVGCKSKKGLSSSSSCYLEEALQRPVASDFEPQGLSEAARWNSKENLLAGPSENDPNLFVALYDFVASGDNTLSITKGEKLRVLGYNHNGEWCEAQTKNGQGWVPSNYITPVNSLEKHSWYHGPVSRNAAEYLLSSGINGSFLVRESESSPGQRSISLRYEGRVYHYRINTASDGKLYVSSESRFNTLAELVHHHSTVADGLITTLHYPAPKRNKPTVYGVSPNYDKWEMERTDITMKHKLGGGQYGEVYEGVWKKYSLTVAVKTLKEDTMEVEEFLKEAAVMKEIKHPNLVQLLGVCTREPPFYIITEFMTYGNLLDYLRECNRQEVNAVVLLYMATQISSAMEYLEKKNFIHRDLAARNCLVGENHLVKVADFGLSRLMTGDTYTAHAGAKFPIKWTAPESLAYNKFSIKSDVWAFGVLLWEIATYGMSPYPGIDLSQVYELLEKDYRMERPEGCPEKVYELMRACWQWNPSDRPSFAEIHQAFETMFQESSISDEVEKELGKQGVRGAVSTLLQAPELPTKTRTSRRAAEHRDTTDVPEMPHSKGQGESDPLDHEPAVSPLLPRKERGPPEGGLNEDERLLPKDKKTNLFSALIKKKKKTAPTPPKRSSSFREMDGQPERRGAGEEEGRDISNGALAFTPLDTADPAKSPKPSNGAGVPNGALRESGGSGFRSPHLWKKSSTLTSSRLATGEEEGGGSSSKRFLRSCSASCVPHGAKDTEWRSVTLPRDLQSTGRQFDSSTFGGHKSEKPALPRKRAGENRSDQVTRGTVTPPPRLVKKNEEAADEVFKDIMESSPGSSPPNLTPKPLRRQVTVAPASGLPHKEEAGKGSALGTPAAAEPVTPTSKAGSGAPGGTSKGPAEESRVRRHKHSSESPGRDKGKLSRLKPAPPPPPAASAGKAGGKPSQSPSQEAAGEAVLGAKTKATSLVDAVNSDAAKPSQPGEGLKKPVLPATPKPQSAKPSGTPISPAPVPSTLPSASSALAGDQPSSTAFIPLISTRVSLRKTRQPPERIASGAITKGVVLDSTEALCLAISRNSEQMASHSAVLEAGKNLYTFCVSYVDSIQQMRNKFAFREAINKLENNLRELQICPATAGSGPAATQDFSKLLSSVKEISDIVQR
T1 sequence (P11274 whole entry, looked up): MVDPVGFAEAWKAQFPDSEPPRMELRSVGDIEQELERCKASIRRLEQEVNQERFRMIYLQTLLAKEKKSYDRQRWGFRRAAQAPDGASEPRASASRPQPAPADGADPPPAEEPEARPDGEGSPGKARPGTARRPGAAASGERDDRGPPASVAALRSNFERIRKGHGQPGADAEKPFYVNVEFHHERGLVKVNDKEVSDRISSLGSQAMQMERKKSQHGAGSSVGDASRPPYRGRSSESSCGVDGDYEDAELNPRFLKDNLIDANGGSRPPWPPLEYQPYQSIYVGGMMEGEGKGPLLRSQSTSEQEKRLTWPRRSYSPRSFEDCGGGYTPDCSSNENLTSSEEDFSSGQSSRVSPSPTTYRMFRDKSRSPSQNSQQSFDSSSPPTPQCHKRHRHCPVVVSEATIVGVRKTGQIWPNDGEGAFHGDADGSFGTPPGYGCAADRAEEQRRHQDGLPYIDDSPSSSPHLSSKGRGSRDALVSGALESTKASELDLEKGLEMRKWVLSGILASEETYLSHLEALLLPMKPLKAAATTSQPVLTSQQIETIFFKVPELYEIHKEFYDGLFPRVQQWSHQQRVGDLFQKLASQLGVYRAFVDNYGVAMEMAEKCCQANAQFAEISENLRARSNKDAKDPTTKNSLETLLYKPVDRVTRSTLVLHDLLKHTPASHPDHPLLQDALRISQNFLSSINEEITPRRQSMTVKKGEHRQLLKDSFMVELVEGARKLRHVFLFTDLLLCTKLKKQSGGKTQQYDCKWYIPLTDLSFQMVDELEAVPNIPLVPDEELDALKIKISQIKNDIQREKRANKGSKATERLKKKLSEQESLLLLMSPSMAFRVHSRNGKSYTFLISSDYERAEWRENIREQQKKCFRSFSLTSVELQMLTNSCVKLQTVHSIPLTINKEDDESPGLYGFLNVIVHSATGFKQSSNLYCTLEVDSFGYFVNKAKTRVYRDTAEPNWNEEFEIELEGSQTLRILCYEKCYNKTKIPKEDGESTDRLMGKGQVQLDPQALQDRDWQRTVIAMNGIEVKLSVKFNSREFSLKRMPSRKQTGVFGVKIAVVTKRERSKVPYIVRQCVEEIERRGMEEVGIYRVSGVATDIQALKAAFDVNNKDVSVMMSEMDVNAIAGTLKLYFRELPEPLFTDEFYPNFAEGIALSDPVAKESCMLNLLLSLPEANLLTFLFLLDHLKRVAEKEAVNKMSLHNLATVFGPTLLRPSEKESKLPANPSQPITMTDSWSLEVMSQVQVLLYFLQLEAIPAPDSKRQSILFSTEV
T1 sequence (Q96SW2 whole entry, looked up): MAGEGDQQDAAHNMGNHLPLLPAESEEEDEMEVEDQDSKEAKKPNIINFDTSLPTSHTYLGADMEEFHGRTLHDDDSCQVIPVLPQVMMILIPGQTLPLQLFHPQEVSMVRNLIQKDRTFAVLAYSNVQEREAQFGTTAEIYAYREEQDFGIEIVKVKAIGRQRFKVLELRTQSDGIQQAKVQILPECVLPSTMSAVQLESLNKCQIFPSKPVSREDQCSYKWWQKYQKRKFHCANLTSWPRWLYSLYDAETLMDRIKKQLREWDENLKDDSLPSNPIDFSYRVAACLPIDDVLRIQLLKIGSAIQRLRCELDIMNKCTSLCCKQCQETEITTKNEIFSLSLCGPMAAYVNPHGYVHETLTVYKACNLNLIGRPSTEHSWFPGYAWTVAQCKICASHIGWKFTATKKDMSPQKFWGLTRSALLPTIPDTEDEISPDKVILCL
Crk-like protein (Homo sapiens), sequence (P46109 whole entry, the tested form may be a part): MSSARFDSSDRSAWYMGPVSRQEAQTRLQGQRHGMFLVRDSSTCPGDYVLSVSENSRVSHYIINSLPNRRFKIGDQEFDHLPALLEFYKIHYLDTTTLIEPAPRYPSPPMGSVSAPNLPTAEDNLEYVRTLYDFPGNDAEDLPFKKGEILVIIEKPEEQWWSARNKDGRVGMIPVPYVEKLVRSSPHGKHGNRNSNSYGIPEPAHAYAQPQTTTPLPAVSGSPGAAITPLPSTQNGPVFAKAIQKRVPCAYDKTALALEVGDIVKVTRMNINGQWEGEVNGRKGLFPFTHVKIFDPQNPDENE
T3 sequence (P00519 whole entry, looked up, the tested form may be a part): as the sequence (P00519 whole entry, looked up) above
T3 sequence (P11274 whole entry, looked up, the tested form may be a part): as the sequence (P11274 whole entry, looked up) above
Description for K562: Antiproliferative activity against human K562 cells assessed as inhibition of cell growth incubated for 2 days by CCK8 assay

Take `O=C1CCC(N2C(=O)c3cccc(NCC(=O)N4CCN(c5ncc(C(=O)Nc6ccc(OC(F)(F)Cl)cc6)cc5-c5ccn[nH]5)CC4)c3C2=O)C(=O)N1` (stereo not given): the Activity in [1] turned out to be 1.82%. Besides, the IC50 with K562 worked out at 572 nM.
`CN1C(=O)CCC(N2Cc3c(SCCCCCCN4CCN(C5CCN(c6ncc(C(=O)Nc7ccc(OC(F)(F)Cl)cc7)cc6-c6ccn[nH]6)CC5)CC4)cccc3C2=O)C1=O` (stereo not given): the outcome in test [2], in [3] and in [8] was Active. Moreover, the inhibition entry in [4], in [5] and in test [6] was “inactive” in each case. Also, the result in test [7] was inactive.
With `O=C1CCC(N2Cc3c(NCCCC(=O)N4CCN(c5ncc(C(=O)Nc6ccc(OC(F)(F)Cl)cc6)cc5-c5ccn[nH]5)CC4)cccc3C2=O)C(=O)N1` (stereo not given), in test [1], the Activity was -2.33%. In the test on K562, the IC50 was found to be 666 nM.
For `O=C1CCC(N2C(=O)c3cccc(C#CCCCC(=O)N4CCN(c5ncc(C(=O)Nc6ccc(OC(F)(F)Cl)cc6)cc5-c5ccn[nH]5)CC4)c3C2=O)C(=O)N1` (stereo not given), in that order: 9.65% and 278 nM.
As to `O=C1CCC(N2C(=O)c3cccc(NCCOCCOCCOCCOCCC(=O)N4CCN(c5ncc(C(=O)Nc6ccc(OC(F)(F)Cl)cc6)cc5-c5ccn[nH]5)CC4)c3C2=O)C(=O)N1` (stereo not given), the Activity in test [1] turned out to be 4.94%. This compound also returned an IC50 with K562 of 886 nM.
